Assays:
rice blast = assay: microbe, parasite or virus in culture; format: cell-based; conditions: for the inhibition rate against rice blast (%) 0.03 mg/L: Table 21, 0.03 mg/L; for the inhibition rate against rice blast (%) 0.1 mg/L: Table 21, 0.1 mg/L; for the inhibition rate against rice blast (%) 0.3 mg/L: Table 21, 0.3 mg/L; for inhibition rate against rice blast: in vitro
corn rust = assay: Protectant activity in vivo (whole plant) against corn rust
Protocol: The method is as followed: The whole plant is used in this test. The compound is dissolved in a proper solvent to get mother solution. The proper solvent is selected from acetone, methanol, DMF and so on according to their dissolving capability to the sample. The volume rate of solvent and testing solution (v/v) is equal to or less than 5%. The mother solution is diluted with water containing 0.1% tween-80 to get the testing solution whose concentration is designed. The testing solution is sprayed to the host plant by a special plant sprayer. The plant is inoculated with fungus after 24 hours. According to the infecting characteristic of fungus, the plant is stored in a humidity chamber and then transferred into greenhouse after infection is finished. And the other plants are placed in greenhouse directly. The activity of compound is obtained by eyeballing after 7 days in common.

cucumber downy mildew = assay: Protectant activity in vivo (whole plant) against cucumber downy mildew
How it was run: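 Whole plants sprayed with test solution, water plus 0.1% Tween-80 and no more than 5% solvent, then inoculated with the pathogen after 24 h. Plants held in humidity chamber or directly in greenhouse depending on fungus. Disease control scored by eye at about 7 days.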

cucumber gray mold = assay: Activity in vitro (96-well, High Through Put): inhibition rate against cucumber gray mold; format: cell-based
Protocol: The method is as followed: High Through Put is used in the test. The compound is dissolved in a proper solvent to become a testing solution whose concentration is designed. The solvent is selected from acetone, methanol, DMF and so on according to their dissolving capability to the sample. In a no animalcule condition, the testing solution and pathogens suspension are added into the cells of 96 cells culture board, which then should be placed in the constant temperature box. 24 hours later, pathogen germination or growth can be investigated by eyeballing, and the activity in vitro of the compound is evaluated based on germination or growth of control treatment.

SMILES | the inhibition rate against rice blast (%) 0.03 mg/L (rice blast) | the inhibition rate against rice blast (%) 0.1 mg/L (rice blast) | the inhibition rate against rice blast (%) 0.3 mg/L (rice blast) | the protectant activity (%) against corn rust (corn rust; 6.25 mg/L) | the protectant activity (%) against corn rust (corn rust; 25 mg/L) | the protectant activity (%) against corn rust (corn rust; 100 mg/L) | the protectant activity (%) against corn rust (corn rust; 400 mg/L) | protectant activity against corn rust in vivo (corn rust; dose 400 mg/L) | the protectant activity (%) against cucumber downy mildew (cucumber downy mildew; 25 mg/L) | the protectant activity (%) against cucumber downy mildew (cucumber downy mildew; 50 mg/L) | the protectant activity (%) against cucumber downy mildew (cucumber downy mildew; 100 mg/L) | protectant activity against cucumber downy mildew in vivo (cucumber downy mildew; dose 50 mg/L) | protectant activity against cucumber downy mildew in vivo (cucumber downy mildew; dose 100 mg/L) | protectant activity against cucumber downy mildew in vivo (cucumber downy mildew; dose 400 mg/L) | the inhibition rate against cucumber gray mold (%) (cucumber gray mold; 0.9 mg/L) | the inhibition rate against cucumber gray mold (%) (cucumber gray mold; 2.8 mg/L) | the inhibition rate against cucumber gray mold (%) (cucumber gray mold; 8.3 mg/L) | further results
N#Cc1c(Cl)c(Cl)c(Nc2c(Cl)cc([N+](=O)[O-])cc2Br)c(Cl)c1C#N [Compound A-46] | 100% | 100% | 100% | 75% | 85% | 95% | 100% | 100% | – | – | – | – | – | – | – | – | – | –
N#Cc1c(Cl)c(Cl)c(Nc2cc(C(F)(F)F)ccc2Cl)c(C#N)c1Cl [Compound B-29] | 0% | 50% | 100% | – | – | – | – | – | 100% | 100% | 100% | 100% | 100% | 100% | 50% | 80% | 80% | the protectant activity (%) against cucumber downy mildew (cucumber downy mildew; 12.5 mg/L): 30%; protectant activity against cucumber downy mildew in vivo (cucumber downy mildew; dose 25 mg/L): 100%; inhibition rate against cucumber gray mold (cucumber gray mold; in vitro, dose 8.3 mg/L): 80%
N#Cc1c(Cl)c(Cl)c(Nc2ccc([N+](=O)[O-])cc2Cl)c(C#N)c1Cl [Compound B-35] | 50% | 80% | 100% | – | – | – | – | – | 98% | 98% | 100% | 98% | 100% | 100% | 100% | 100% | 100% | the protectant activity (%) against cucumber downy mildew (cucumber downy mildew; 12.5 mg/L): 98%; protectant activity against cucumber downy mildew in vivo (cucumber downy mildew; dose 12.5 mg/L): 98%; the inhibition rate against cucumber gray mold (%) (cucumber gray mold; 0.3 mg/L): 100%
N#Cc1cc(Cl)c(Nc2c(Cl)c(Cl)c(C#N)c(Cl)c2C#N)c(Cl)c1 [Compound B-51] | 0% | 50% | 100% | – | – | – | – | – | – | – | – | – | – | – | 80% | 80% | 100% | –
COC(=O)c1cc(Cl)c(Nc2c(Cl)c(Cl)c(C#N)c(Cl)c2C#N)c(Cl)c1 [Compound B-62] | 0% | 80% | 100% | 0% | 30% | 60% | 100% | 100% | – | – | – | – | – | – | – | – | – | –
N#Cc1c(Cl)c(Cl)c(Nc2c(Cl)c(Cl)c(C#N)c(Cl)c2C#N)c(C#N)c1Cl [Compound B-69] | – | – | – | – | – | – | – | 100% | – | – | – | – | – | 100% | – | – | – | inhibition rate against rice blast (rice blast; dose 8.3 mg/L): 80%
CN(C)c1c(Cl)c(Nc2c(Cl)cc([N+](=O)[O-])cc2Cl)c(C#N)c(Cl)c1C#N [Compound B-73] | 0% | 0% | 80% | 30% | 70% | 100% | 98% | 100% | 50% | 100% | 100% | 100% | 100% | 100% | – | – | – | inhibition rate against rice blast (rice blast; dose 0.3 mg/L): 80%; protectant activity against corn rust in vivo (corn rust; dose 100 mg/L): 100%
N#Cc1c(F)c(F)c(Nc2ccc(C(F)(F)F)cc2Cl)c(C#N)c1F [Compound B-92] | – | – | – | – | – | – | – | 100% | – | – | – | 98% | 100% | 100% | – | – | – | inhibition rate against rice blast (rice blast; dose 0.3 mg/L): 80%; protectant activity against corn rust in vivo (corn rust; dose 100 mg/L): 100%
